Reference: PubChem BioAssay AID248 (DTP/NCI, 2004)
“And” between values parts separate entries of the source, which are not always exact repeats. Equal values may be shown once. Toxic doses and inconclusive results are not listed. Rule as the data show it: active = T/C of 150% or more; inactive = T/C below 125%. Peptide text beside a SMILES is read from it. * marks the point of attachment. Cbz = O=C(OCc1ccccc1)*

System: L1210 leukemia ip in BDF1 mice, survival T/C
Test: NCI In Vivo Anticancer Drug Screen. Data for tumor model L1210 Leukemia (intraperitoneal) in B6D2F1 (BDF1) mice
Details: higher = longer survival
In short: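 Value reflects the ratio of survival in compound-treated mice to survival in vehicle-treated controls, with both groups carrying the same transplanted tumor.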

[1] = endpoint: mean survival time, dose: 100.0 mg/kg/injection, schedule: Q01DX009 (ip), vehicle: Klucel (hydroxypropylcellulose) (HPC)
[2] = endpoint: mean survival time, dose: 200.0 mg/kg/injection, schedule: Q01DX009 (ip), vehicle: Klucel (hydroxypropylcellulose) (HPC)
[3] = endpoint: mean survival time, dose: 100.0 mg/kg/injection, schedule: Q01DX009 (ip), vehicle: other
[4] = endpoint: mean survival time, dose: 100.0 mg/kg/injection, schedule: Q04DX003 (ip), vehicle: saline with Tween-80
[5] = endpoint: mean survival time, dose: 200.0 mg/kg/injection, schedule: Q01DX009 (ip), vehicle: other
[6] = endpoint: mean survival time, dose: 200.0 mg/kg/injection, schedule: Q04DX003 (ip), vehicle: saline with Tween-80
[7] = endpoint: mean survival time, dose: 400.0 mg/kg/injection, schedule: Q01DX009 (ip), vehicle: other
[8] = endpoint: mean survival time, dose: 100.0 mg/kg/injection, schedule: Q01DX001 (ip), vehicle: saline
[9] = endpoint: mean survival time, dose: 200.0 mg/kg/injection, schedule: Q01DX001 (ip), vehicle: saline
[10] = endpoint: mean survival time, dose: 400.0 mg/kg/injection, schedule: Q01DX001 (ip), vehicle: saline
[11] = endpoint: mean survival time, dose: 100.0 mg/kg/injection, schedule: Q04DX003 (ip), vehicle: Klucel (hydroxypropylcellulose) (HPC)
[12] = endpoint: mean survival time, dose: 200.0 mg/kg/injection, schedule: Q04DX003 (ip), vehicle: Klucel (hydroxypropylcellulose) (HPC)
[13] = endpoint: mean survival time, dose: 400.0 mg/kg/injection, schedule: Q01DX009 (ip), vehicle: Klucel (hydroxypropylcellulose) (HPC)
[14] = endpoint: mean survival time, dose: 400.0 mg/kg/injection, schedule: Q04DX003 (ip), vehicle: Klucel (hydroxypropylcellulose) (HPC)
[15] = endpoint: mean survival time, dose: 100.0 mg/kg/injection, schedule: Q01DX001 (ip), vehicle: Klucel (hydroxypropylcellulose) (HPC)
[16] = endpoint: mean survival time, dose: 100.0 mg/kg/injection, schedule: Q04DX002 (ip), vehicle: Klucel (hydroxypropylcellulose) (HPC)
[17] = endpoint: mean survival time, dose: 200.0 mg/kg/injection, schedule: Q01DX001 (ip), vehicle: Klucel (hydroxypropylcellulose) (HPC)
[18] = endpoint: mean survival time, dose: 200.0 mg/kg/injection, schedule: Q04DX002 (ip), vehicle: Klucel (hydroxypropylcellulose) (HPC)
[19] = endpoint: mean survival time, dose: 400.0 mg/kg/injection, schedule: Q01DX001 (ip), vehicle: Klucel (hydroxypropylcellulose) (HPC)
[20] = endpoint: mean survival time, dose: 400.0 mg/kg/injection, schedule: Q04DX002 (ip), vehicle: Klucel (hydroxypropylcellulose) (HPC)

Measured: T/C

CC(=O)c1cc2ccccc2o1
inactive: endpoint: mean survival time, dose: 6.25 mg/kg/injection, schedule: Q04DX003 (ip), vehicle: water 103 % of control | endpoint: mean survival time, dose: 12.5 mg/kg/injection, schedule: Q04DX003 (ip), vehicle: water 109 % of control | endpoint: mean survival time, dose: 50.0 mg/kg/injection, schedule: Q01DX009 (ip), vehicle: Klucel (hydroxypropylcellulose) (HPC) 92 % of control | endpoint: mean survival time, dose: 50.0 mg/kg/injection, schedule: Q04DX003 (ip), vehicle: water 108 % of control | [1] 90 % of control | endpoint: mean survival time, dose: 100.0 mg/kg/injection, schedule: Q04DX003 (ip), vehicle: water 112 % of control | [2] 95 % of control | endpoint: mean survival time, dose: 200.0 mg/kg/injection, schedule: Q04DX003 (ip), vehicle: water 123 % of control

CSC(N)=S
inactive: endpoint: mean survival time, dose: 50.0 mg/kg/injection, schedule: Q01DX009 (ip), vehicle: saline 96 % of control | endpoint: mean survival time, dose: 50.0 mg/kg/injection, schedule: Q04DX003 (ip), vehicle: saline 97 % of control | endpoint: mean survival time, dose: 100.0 mg/kg/injection, schedule: Q01DX009 (ip), vehicle: saline 94 % of control | endpoint: mean survival time, dose: 100.0 mg/kg/injection, schedule: Q04DX003 (ip), vehicle: saline 99 % of control | endpoint: mean survival time, dose: 200.0 mg/kg/injection, schedule: Q04DX003 (ip), vehicle: saline 99 % of control

CC(C)=CC(=O)OC(=O)C=C(C)C
inactive: [3] 105 % of control | [4] 98 % of control | [5] 88 % of control | [6] 96 % of control | [7] 91 % of control | endpoint: mean survival time, dose: 400.0 mg/kg/injection, schedule: Q04DX003 (ip), vehicle: saline with Tween-80 89 % of control

ClC(Cl)=C(c1ccc(Cl)cc1)c1ccc(Cl)cc1
inactive: [8] 101 % of control | endpoint: mean survival time, dose: 100.0 mg/kg/injection, schedule: Q04DX002 (ip), vehicle: gum acacia 114 % of control | [9] 110 % of control | endpoint: mean survival time, dose: 200.0 mg/kg/injection, schedule: Q04DX002 (ip), vehicle: gum acacia 91 % of control | [10] 98 % of control | endpoint: mean survival time, dose: 400.0 mg/kg/injection, schedule: Q04DX002 (ip), vehicle: gum acacia 100 % of control

Cc1cc(NC(=O)/C=C/c2ccc([N+](=O)[O-])cc2Cl)ccc1S(=O)(=O)F
inactive: endpoint: mean survival time, dose: 100.0 mg/kg/injection, schedule: Q01DX001 (ip), vehicle: saline with Tween-80 92 % of control | endpoint: mean survival time, dose: 200.0 mg/kg/injection, schedule: Q01DX001 (ip), vehicle: saline with Tween-80 93 % of control | endpoint: mean survival time, dose: 400.0 mg/kg/injection, schedule: Q01DX001 (ip), vehicle: saline with Tween-80 92 % of control

COC(=O)C1C2CC(C3OC23)C1C(=O)OC (stereo not given)
inactive: [3] 110 % of control | [5] 108 % of control | [7] 93 % of control

O=C(c1ccccc1)C(Br)C(Br)C(=O)c1ccccc1 (stereo not given)
inactive: endpoint: mean survival time, dose: 100.0 mg/kg/injection, schedule: Q01DX001 (ip), vehicle: carboxymethylcellulose (CMC) 107 % of control | [1] 93 % of control | [11] 91 % of control | endpoint: mean survival time, dose: 200.0 mg/kg/injection, schedule: Q01DX001 (ip), vehicle: carboxymethylcellulose (CMC) 96 % of control | [2] 101 % of control | [12] 88 % of control | endpoint: mean survival time, dose: 400.0 mg/kg/injection, schedule: Q01DX001 (ip), vehicle: carboxymethylcellulose (CMC) 107 % of control | [13] 91 % of control | [14] 90 % of control

CC(C)c1cccc(C(C)C)c1OC(=O)Nc1ccccc1
inactive: [15] 101 % of control | [1] 97 % of control | [16] 95 % of control and 102 % of control | [11] 116 % of control | [17] 88 % of control | [2] 98 % of control and 87 % of control | [18] 97 % of control and 108 % of control | [12] 100 % of control | [19] 87 % of control | [13] 103 % of control and 113 % of control | [20] 102 % of control and 90 % of control | [14] 108 % of control

CCOC(=O)c1[nH]c(-c2ccccc2)nc1/N=N/N(C)C
inactive: endpoint: median survival time, dose: 25.0 mg/kg/injection, schedule: Q01DX009 (ip), vehicle: Klucel (hydroxypropylcellulose) (HPC) 122 % of control | endpoint: median survival time, dose: 200.0 mg/kg/injection, schedule: Q01DX009 (ip), vehicle: Klucel (hydroxypropylcellulose) (HPC) 111 % of control

CN/N=C/c1ccc(C(=O)NC(C)C)cc1
inactive: endpoint: mean survival time, dose: 25.0 mg/kg/injection, schedule: Q04DX003 (ip), vehicle: Klucel (hydroxypropylcellulose) (HPC) 98 % of control | endpoint: mean survival time, dose: 50.0 mg/kg/injection, schedule: Q04DX003 (ip), vehicle: Klucel (hydroxypropylcellulose) (HPC) 102 % of control | [11] 102 % of control | [12] 109 % of control

CC(C)OC1=CC2C(=CCC3C2(C)C(=O)CC2(C)C(C(C)(O)C(=O)/C=C/C(C)(C)O)C(O)CC32C)C(C)(C)C1=O (stereo not given)
inactive: endpoint: mean survival time, dose: 37.5 mg/kg/injection, schedule: Q04DX002 (ip), vehicle: saline with Tween-80 101 % of control | endpoint: mean survival time, dose: 75.0 mg/kg/injection, schedule: Q04DX002 (ip), vehicle: saline with Tween-80 93 % of control | endpoint: mean survival time, dose: 150.0 mg/kg/injection, schedule: Q04DX002 (ip), vehicle: saline with Tween-80 108 % of control

CC(=O)NC1C(OC(C)=O)OC(COC(c2ccccc2)(c2ccccc2)c2ccccc2)C(OC(C)=O)C1OC(C)=O (stereo not given)
inactive: [8] 108 % of control | [9] 96 % of control | [10] 96 % of control

N#CCCN1CCC(=O)c2ccccc21
inactive: [8] 101 % of control | [9] 98 % of control | [10] 101 % of control

COC(=O)C(CC(C)C)NC(=O)C(Cc1ccccc1)NC(=O)OCc1ccccc1 (stereo not drawn) (Cbz-Phe-Leu-OMe; configuration not given here)
inactive: [8] 98 % of control | [9] 93 % of control | [10] 91 % of control

Cc1c(Cl)cccc1NC(=O)Oc1ccc(-c2ccccc2)cc1
inactive: endpoint: mean survival time, dose: 50.0 mg/kg/injection, schedule: Q04DX003 (ip), vehicle: saline with Tween-80 97 % of control | endpoint: mean survival time, dose: 100.0 mg/kg/injection, schedule: Q01DX009 (ip), vehicle: saline with Tween-80 95 % of control and 97 % of control | endpoint: mean survival time, dose: 100.0 mg/kg/injection, schedule: Q04DX002 (ip), vehicle: saline with Tween-80 93 % of control and 91 % of control | [4] 101 % of control | endpoint: mean survival time, dose: 200.0 mg/kg/injection, schedule: Q01DX009 (ip), vehicle: saline with Tween-80 104 % of control and 89 % of control | endpoint: mean survival time, dose: 200.0 mg/kg/injection, schedule: Q04DX002 (ip), vehicle: saline with Tween-80 96 % of control | [6] 100 % of control | endpoint: mean survival time, dose: 400.0 mg/kg/injection, schedule: Q04DX002 (ip), vehicle: saline with Tween-80 96 % of control and 103 % of control

Cc1cccc(OC(=O)Nc2cccc(Cl)c2)c1C
inactive: [15] 94 % of control | [1] 94 % of control and 100 % of control | [16] 102 % of control and 105 % of control | [11] 101 % of control | [17] 92 % of control | [2] 98 % of control and 100 % of control | [18] 96 % of control and 98 % of control | [12] 97 % of control | [19] 92 % of control | [13] 94 % of control and 96 % of control | [20] 107 % of control and 109 % of control | [14] 93 % of control

CCCCCCCNc1ccc(S(=O)(=O)c2ccc(NCCCCCCC)c([N+](=O)[O-])c2)cc1[N+](=O)[O-]
inactive: endpoint: mean survival time, dose: 25.0 mg/kg/injection, schedule: Q01DX009 (ip), vehicle: DMSO 94 % of control | endpoint: mean survival time, dose: 50.0 mg/kg/injection, schedule: Q01DX009 (ip), vehicle: DMSO 98 % of control | endpoint: mean survival time, dose: 100.0 mg/kg/injection, schedule: Q01DX005 (ip), vehicle: DMSO 90 % of control | endpoint: mean survival time, dose: 100.0 mg/kg/injection, schedule: Q01DX009 (ip), vehicle: DMSO 94 % of control and 98 % of control | endpoint: mean survival time, dose: 100.0 mg/kg/injection, schedule: Q04DX002 (ip), vehicle: DMSO 100 % of control | endpoint: mean survival time, dose: 200.0 mg/kg/injection, schedule: Q01DX009 (ip), vehicle: DMSO 101 % of control | endpoint: mean survival time, dose: 200.0 mg/kg/injection, schedule: Q04DX002 (ip), vehicle: DMSO 88 % of control | endpoint: mean survival time, dose: 400.0 mg/kg/injection, schedule: Q01DX005 (ip), vehicle: DMSO 90 % of control | endpoint: mean survival time, dose: 400.0 mg/kg/injection, schedule: Q01DX009 (ip), vehicle: DMSO 100 % of control | endpoint: mean survival time, dose: 400.0 mg/kg/injection, schedule: Q04DX002 (ip), vehicle: DMSO 96 % of control
